The subject of one data set is hair loss. The following applies: clinical studies, taken by mouth; cited from earlier work.
The subject of the next data set is scalp hair growth. Briefly: Local application of insulin to the scalp, alone or before other agents, hair growth. Format: in vivo, human.
Data set [1] has as its system cultured human hair follicles. As to conditions: cited from earlier work; for preventing hair follicles from entering into a catagen-like state, compared with insulin / rates of hair follicle growth compared with 10 micrograms/ml insulin: IGF-I 10 ng/ml, IGF-II 100 ng/ml; for effect on hair follicle growth: in the presence of 10 micrograms/ml insulin.
The conditions of data set [2]: cited from earlier work.
Data set [3] relates to hair loss due to chemotherapy. Briefly: Insulin spray on the scalp during chemotherapy. The data set is classed as in vivo, human. The following applies: 3-5 units of insulin diluted in normal saline or ringers lactate, cancer patients. The procedure:
It is this experience that leads us to this invention. […] We also experimented with application of cold pack to the scalp 15 minutes after insulin spray, which caused the constriction of BV and reduced the amount of chemotherapy agent reaching the scalp hair which causes havoc on the hair root cells. These three simple methods reduced the profound loss of scalp hair to chemotherapy toxic effects in cancer patients during chemotherapy treatment. Insulin applied directly to the scalp had preventive effect on hair loss due to chemotherapy.

On data set [4], the source says: If one develops hypoglycemic symptoms due to any number of reasons, drink a sugar drink, eat a candy, or fruit cocktail.
The next data set concerns wound healing. Put plainly: Local insulin on ulcers, tooth extraction wounds and gums. The data set is classed as in vivo, human. The source says:
We have used insulin for more than a decade to enhance the effectiveness of locally injected therapeutic agents specially cancers with chemotherapeutic agents with remarkable results. Our research data also supports that the insulin spray on indolent ulcers anywhere in the body, including the oral (gums) and nasal cavity.

Data set [5] deals with MCF-7 human breast cancer cells. As to conditions: MCF-7 cells, insulin plus methotrexate; cited from earlier work.
The mark [6] stands for this setting: in the absence of insulin, 0.01-100 ng/ml.

Read-outs that look alike come from different tables or passages of the source.

Excerpt for scalp hair growth: Wash scalp with mild shampoo. Avoid using hair conditioners which may coat the bald skin resulting in prevention of the effective absorption of insulin. This is followed by application of oxidant. In our invention, we can use any one of the above described antioxidants, but in this instance we are discussing povidine iodine. […] Allow it to dry, and follow it by application of insulin by a spray or swab repeatedly 2-3 times as it dries.
Apply the Wash dressing on the wound if need be.
Step 4: Apply selected hair growth therapeutic agent, which includes prostaglandin and its derivatives which are already in the market and FDA approved.
We recommend the use of tocotrienols after insulin application so that this therapeutic agent can easily permeate the hair follicle and promote the hair growth.
Apply selected hair growth therapeutic agent using PGF 2α, and analogues.

Regarding `CC(C)(C)NC(=O)[C@H]1CC[C@H]2[C@@H]3CC[C@H]4NC(=O)C=C[C@]4(C)[C@H]3CC[C@]12C` [Finasteride], in the data set with hair loss, the “share of men in whom hair loss stopped” value is recorded as 83%.

As to `COc1cc(/C=C/C(=O)CC(=O)/C=C/c2ccc(O)c(OC)c2)ccc1O` [curcumin], the “use as antioxidant for hair growth after application of insulin” value with scalp hair growth (applied after insulin) is recorded as “used effectively”.

On to IGF-I: Insulin-like growth factor I, for which, in data set [1], the “preventing hair follicles from entering into a catagen-like state, compared with insulin” value was “more potent than insulin”; the “rates of hair follicle growth compared with 10 micrograms/ml insulin” value is recorded as “identical”; the “effect on hair follicle growth” value is on record as “no significant effect”. Also, the “stimulation of hair follicle growth” value in data set [1] (setting [6]) is reported as “stimulated hair follicle growth in a dose-dependent manner”. Also, in data set [1] (in the absence of insulin), the “concentration stimulating maximum rates of hair follicle growth” value is 10 ng/mL.

For the compound IGF-II: Insulin-like growth factor II, in data set [1], the “preventing hair follicles from entering into a catagen-like state, compared with insulin” value is “more potent than insulin”; the “rates of hair follicle growth compared with 10 micrograms/ml insulin” value is listed as “unable to stimulate hair follicle growth to the same extent as insulin”; the “effect on hair follicle growth” value is given as “no significant effect”. Further, the “stimulation of hair follicle growth” value in data set [1] (setting [6]) is recorded as “stimulated hair follicle growth in a dose-dependent manner”. In addition, the “concentration stimulating maximum rates of hair follicle growth” value in data set [1] (in the absence of insulin) is 100 ng/mL.

As to “Regular (R) humulin or novolin: Short-acting insulin”, in data set [2] (in vivo), the Duration of action was 5 to 8 h and the Onset of action is 30 to 60 min. For the same compound, the Peak effect in data set [2] (short-acting insulin) was 2 to 5 h.

For “growth hormone: growth hormone (somatotrophin)”, the “influence on hair follicle and hair growth” value in data set [1] (growth hormone alone) is listed as “no direct influence”.

For “insulin: hormone secreted by beta cells in the islets of Langerhans in the pancreas”, the “concentration giving maximum rates of hair follicle growth” value in data set [1] (follicles maintained in medium containing insulin) is given as 10 micrograms/ml. Further, the “stimulation of hair follicle growth” value in data set [1] (over the range of 0.01 to 100 micrograms/ml) is given as “stimulated hair follicle growth in a dose-dependent manner”. The “hair loss during chemotherapy” value in data set [3] is listed as “reduced the hair loss dramatically”. Also, the hypoglycemia entry in data set [4] (after application of insulin to the scalp) was “none of our cases developed hypoglycemia”. In addition, the “side effect after application” value in data set [4] (insulin preparations on the scalp) is “itching and redness”. Besides, in data set [4] (simple insulin applied to enhance hair growth), the “darkening of the skin” value is given as “did not result in any appreciable darkening of the skin”. Further, the “hair follicle transplant healing and growth” value with scalp hair growth (insulin applied with hair follicle transplant, no second agent) was “rapid wound healing along with uptake and growth of hair follicle transplant”. Further, in the data set with scalp hair growth (insulin on its own), the hair growth entry is “enhances the hair growth”. Moreover, in the data set on wound healing (insulin and antibiotics such as doxycycline locally on the gums), the “gum diseases (periodontitis)” value was “eliminated gum diseases”. The “healing after teeth extraction” value in the data set with wound healing (insulin soaked cotton swabs, 1-3-5 units in normal saline) was “rapid healing with reduced pain”. The wound healing entry in the data set with wound healing (insulin spray on indolent ulcers) was “accelerated wound healing”. Besides, the “increase of the cytotoxic effect of methotrexate” value in data set [5] is given as “up to 10,000 fold”.

The record behind these values is patent US20100172865A1, “METHODS OF ENHANCING HAIR GROWTH” (priority 2010, published 2010).
